Measured values reported in US12384770B2, “Heterocyclic compound” (Takeda Pharmaceutical Company Limited, priority 2019, dated 2025).

Target: T1, HDAC6 enzyme (Homo sapiens, UniProt Q9UBN7)
T1 construct: HDAC6 enzyme prepared by transducing full length HDAC6 gene into Sf-9 insect cells; GST; purchased SignalChem; host or cells: Sf-9 insect cells
T1 sequence (Q9UBN7 1-1215): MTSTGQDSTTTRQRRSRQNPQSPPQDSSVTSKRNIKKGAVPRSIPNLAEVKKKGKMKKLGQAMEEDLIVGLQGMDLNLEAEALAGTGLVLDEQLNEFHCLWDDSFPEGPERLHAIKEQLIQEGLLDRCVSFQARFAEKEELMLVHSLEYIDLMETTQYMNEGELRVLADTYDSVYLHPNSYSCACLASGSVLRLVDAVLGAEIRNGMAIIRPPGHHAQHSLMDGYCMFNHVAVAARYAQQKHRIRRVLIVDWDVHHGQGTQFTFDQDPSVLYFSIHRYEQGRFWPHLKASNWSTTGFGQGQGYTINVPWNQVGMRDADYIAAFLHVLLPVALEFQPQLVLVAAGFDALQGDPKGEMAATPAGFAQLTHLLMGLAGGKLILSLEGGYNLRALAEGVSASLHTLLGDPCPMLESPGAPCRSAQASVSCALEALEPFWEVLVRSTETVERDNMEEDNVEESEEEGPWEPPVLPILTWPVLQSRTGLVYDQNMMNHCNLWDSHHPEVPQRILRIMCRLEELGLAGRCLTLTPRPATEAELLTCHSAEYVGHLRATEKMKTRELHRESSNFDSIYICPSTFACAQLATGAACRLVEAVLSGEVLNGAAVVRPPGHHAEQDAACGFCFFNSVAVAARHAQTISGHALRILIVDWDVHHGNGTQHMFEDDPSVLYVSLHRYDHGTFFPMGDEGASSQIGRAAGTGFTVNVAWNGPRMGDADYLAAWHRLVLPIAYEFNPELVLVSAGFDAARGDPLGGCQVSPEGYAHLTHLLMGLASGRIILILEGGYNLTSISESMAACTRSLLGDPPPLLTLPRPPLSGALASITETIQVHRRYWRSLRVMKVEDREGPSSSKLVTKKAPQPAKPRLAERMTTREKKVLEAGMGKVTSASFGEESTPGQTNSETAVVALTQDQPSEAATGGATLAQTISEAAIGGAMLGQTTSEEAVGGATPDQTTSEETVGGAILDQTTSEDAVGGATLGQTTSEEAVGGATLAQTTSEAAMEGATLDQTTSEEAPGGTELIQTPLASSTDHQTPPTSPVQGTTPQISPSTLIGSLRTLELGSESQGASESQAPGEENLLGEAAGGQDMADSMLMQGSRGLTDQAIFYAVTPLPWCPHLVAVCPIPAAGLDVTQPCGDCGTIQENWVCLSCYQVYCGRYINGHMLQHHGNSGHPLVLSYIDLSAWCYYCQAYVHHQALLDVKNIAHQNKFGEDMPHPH
Assay: HDAC6 enzyme inhibitory assay (HDAC-Glo I/II Assay kit)
Type: biochemical
Conditions: wells without enzyme = 100% inhibition
Method: Experimental Example 1 HDAC6 Enzyme Inhibitory Assay
HDAC6 enzyme prepared by transducing full length HDAC6 gene into Sf-9 insect cells and purifying by GST affinity column were purchased from SignalChem. Using this enzyme, HDAC6 enzyme inhibitory activity of the compound of the present invention were evaluated. Enzymes were used after preserved at −70° C. HDAC6 enzyme inhibitory activity of the compound of the present invention was measured using HDAC-Glo™ I/II Assay kit (Promega) according to the following experimental method. The test compound diluted with assay buffer (24 mM Tris-HCl (pH 7.5), 1 mM MgCl2, 0.35 mM KCl, 135 mM NaCl, 0.6 mM Glutathione, 0.01% Tween-20) was added to a 384-well plate by each 2 μL. Then, HDAC6 enzyme solution diluted with assay buffer was added thereto by each 4 μL, and the plate was incubated at room temperature for 60 min. After incubated, HDAC substrate-Developer solution prepared according to Promega protocol attached to the assay kit was added to the 384-well plate by each 2 μL, and the enzyme reaction was started. After reacting at room temperature for 20 min, luminescence level was measured using plate reader Envision (PerkinElmer). The inhibitory activity of each compound of Example was calculated as a relative activity value when luminescence level in wells without enzyme is considered as 100% inhibition.

HDAC6 inhibitory rate (%) (10 μM) | SMILES
100 | O=C1c2cc(-c3nnc(C(F)F)o3)ccc2CN1[C@H](c1cccc(F)n1)[C@@H](O)c1cccc(F)c1 (single isomer, unassigned) [Example 90, 6-[5-(difluoromethyl)-1,3,4-oxadiazol-2-yl]-2-[(1R*,2S*)-2-(3-fluorophenyl)-1-(6-fluoropyridin-2-yl)-2-hydroxyethyl]-2,3-dihydro-1H-isoindol-1-one]
99 | O=C1c2cc(-c3nnc(C(F)F)o3)ccc2CN1[C@H](c1cnccn1)[C@@H](O)c1ccccc1 (single isomer, unassigned) [Example 128, 6-[5-(difluoromethyl)-1,3,4-oxadiazol-2-yl]-2-[(1R*,2S*)-2-hydroxy-2-phenyl-1-(pyrazin-2-yl)ethyl]-2,3-dihydro-1H-isoindol-1-one]

Same assay, conditions: wells without enzyme = 100% inhibition, 10 µM

HDAC6 inhibitory rate (%) (10 μM) | SMILES
99 | O=C1c2cc(-c3nnc(C(F)F)o3)ccc2CN1[C@H](C1CCOCC1)[C@@H](O)c1ccc(F)c(F)c1 (single isomer, unassigned) [Example 88, 6-[5-(difluoromethyl)-1,3,4-oxadiazol-2-yl]-2-[(1R*,2S*)-2-(3,4-difluorophenyl)-2-hydroxy-1-(oxan-4-yl)ethyl]-2,3-dihydro-1H-isoindol-1-one]
100 | O=C1c2cc(-c3nnc(C(F)F)o3)ccc2CN1[C@H](C1CC1)[C@@H](O)c1cccc(F)n1 (single isomer, unassigned) [Example 80, 2-[(1R*,2R*)-1-cyclopropyl-2-(6-fluoropyridin-2-yl)-2-hydroxyethyl]-6-[5-(difluoromethyl)-1,3,4-oxadiazol-2-yl]-2,3-dihydro-1H-isoindol-1-one]

Same assay, conditions: wells without enzyme = 100% inhibition, read-out: HDAC6 inhibitory rate (%) (10 μM)

SMILES | inhibition at 10 µM [%]
O=C1c2cc(-c3nnc(C(F)F)o3)ccc2CN1[C@H](c1ccccn1)[C@@H](O)c1ccc(F)cc1 (single isomer, unassigned) [Example 36, 6-[5-(difluoromethyl)-1,3,4-oxadiazol-2-yl]-2-[(1R*,2S*)-2-(4-fluorophenyl)-2-hydroxy-1-(pyridin-2-yl)ethyl]-2,3-dihydro-1H-isoindol-1-one] | 101
O=C1c2cc(-c3nnc(C(F)F)o3)ccc2CN1[C@H](c1ccc(F)cn1)[C@H](O)c1ccccn1 (racemic) [Example 144, 6-[5-(difluoromethyl)-1,3,4-oxadiazol-2-yl]-2-[(1RS,2SR)-1-(5-fluoropyridin-2-yl)-2-hydroxy-2-(pyridin-2-yl)ethyl]-2,3-dihydro-1H-isoindol-1-one] | 100
O=C1c2cc(-c3nnc(C(F)F)o3)ccc2CN1[C@H](C1CCOCC1)[C@@H](O)c1cccc(C(F)(F)F)c1 (racemic) [Example 116, 6-[5-(difluoromethyl)-1,3,4-oxadiazol-2-yl]-2-{(1RS,2SR)-2-hydroxy-1-(oxan-4-yl)-2-[3-(trifluoromethyl)phenyl]ethyl}-2,3-dihydro-1H-isoindol-1-one] | 101
O=C1c2cc(-c3nnc(C(F)F)o3)ccc2CN1[C@H](c1cccc(C(F)(F)F)c1)[C@@H](O)c1ccccn1 (racemic) [Example 24, 6-[5-(difluoromethyl)-1,3,4-oxadiazol-2-yl]-2-{(1RS,2RS)-2-hydroxy-2-(pyridin-2-yl)-1-[3-(trifluoromethyl)phenyl]ethyl}-2,3-dihydro-1H-isoindol-1-one] | 99
O=C1c2cc(-c3nnc(C(F)F)o3)ccc2CN1[C@H](c1cccc(F)c1)[C@@H](O)c1ccccc1 (racemic) [Example 20, 6-[5-(difluoromethyl)-1,3,4-oxadiazol-2-yl]-2-[(1RS,2SR)-1-(3-fluorophenyl)-2-hydroxy-2-phenylethyl]-2,3-dihydro-1H-isoindol-1-one] | 100
O=C1c2cc(-c3nnc(C(F)F)o3)ccc2CN1[C@@H](c1ccccn1)[C@@H](O)c1cccc(F)c1 (racemic) [Example 145, 6-[5-(difluoromethyl)-1,3,4-oxadiazol-2-yl]-2-[(1SR,2SR)-2-(3-fluorophenyl)-2-hydroxy-1-(pyridin-2-yl)ethyl]-2,3-dihydro-1H-isoindol-1-one] | 99
O=C1c2cc(-c3nnc(C(F)F)o3)ccc2CN1[C@H](c1ncccn1)[C@H](O)c1cccc(F)c1 (racemic) [Example 136, 6-[5-(difluoromethyl)-1,3,4-oxadiazol-2-yl]-2-[(1RS,2RS)-2-(3-fluorophenyl)-2-hydroxy-1-(pyrimidin-2-yl)ethyl]-2,3-dihydro-1H-isoindol-1-one] | 99
O=C1c2cc(-c3nnc(C(F)F)o3)ccc2CN1[C@H](c1ccccn1)[C@H](O)c1ccc(F)cc1 (racemic) [Example 141, 6-[5-(difluoromethyl)-1,3,4-oxadiazol-2-yl]-2-[(1RS,2RS)-2-(4-fluorophenyl)-2-hydroxy-1-(pyridin-2-yl)ethyl]-2,3-dihydro-1H-isoindol-1-one] | 99

Other lines, results leading:

inhibition at 10 µM [%] | SMILES
100 | O=C1c2cc(-c3nnc(C(F)F)o3)ccc2CN1[C@H](c1cnccn1)[C@@H](O)c1cccc(F)c1 (single isomer, unassigned) [Example 100, 6-[5-(difluoromethyl)-1,3,4-oxadiazol-2-yl]-2-[(1R*,2S*)-2-(3-fluorophenyl)-2-hydroxy-1-(pyrazin-2-yl)ethyl]-2,3-dihydro-1H-isoindol-1-one]
99 | O=C1c2cc(-c3nnc(C(F)F)o3)ccc2CN1[C@H](c1ccccc1)[C@@H](O)c1ccc(F)cc1 (racemic) [Example 22, 6-[5-(difluoromethyl)-1,3,4-oxadiazol-2-yl]-2-[(1RS,2SR)-2-(4-fluorophenyl)-2-hydroxy-1-phenylethyl]-2,3-dihydro-1H-isoindol-1-one]
99 | O=C1c2cc(-c3nnc(C(F)F)o3)ccc2CN1[C@H](c1ccccn1)[C@@H](O)c1ccc(Cl)cn1 (single isomer, unassigned) [Example 112, 2-[(1R*,2R*)-2-(5-chloropyridin-2-yl)-2-hydroxy-1-(pyridin-2-yl)ethyl]-6-[5-(difluoromethyl)-1,3,4-oxadiazol-2-yl]-2,3-dihydro-1H-isoindol-1-one]
100 | O=C1c2cc(-c3nnc(C(F)F)o3)ccc2CN1[C@H](c1ccc(F)nc1)[C@@H](O)c1ccc(F)cc1 (single isomer, unassigned) [Example 34, 6-[5-(difluoromethyl)-1,3,4-oxadiazol-2-yl]-2-[(1R*,2S*)-2-(4-fluorophenyl)-1-(6-fluoropyridin-3-yl)-2-hydroxyethyl]-2,3-dihydro-1H-isoindol-1-one]
100 | O=C1c2cc(-c3nnc(C(F)F)o3)ccc2CN1[C@H](C1CCOCC1)[C@@H](O)c1ccc(F)c(F)c1 (single isomer, unassigned) [Example 87, 6-[5-(difluoromethyl)-1,3,4-oxadiazol-2-yl]-2-[(1R*,2S*)-2-(3,4-difluorophenyl)-2-hydroxy-1-(oxan-4-yl)ethyl]-2,3-dihydro-1H-isoindol-1-one]
99 | O=C1c2cc(-c3nnc(C(F)F)o3)ccc2CN1[C@H](c1ccccn1)[C@H](O)c1ccccn1 (racemic) [Example 135, 6-[5-(difluoromethyl)-1,3,4-oxadiazol-2-yl]-2-[(1RS,2SR)-2-hydroxy-1,2-di(pyridin-2-yl)ethyl]-2,3-dihydro-1H-isoindol-1-one]
